{"source": "patent US11612634B2", "about": "(priority 2020, dated 2023)", "key": {"[1]": {"system": "CCI-induced neuropathic pain rat model", "experiment": "Analgesic effect on mechanical hyperalgesia (PWT) in CCI-induced neuropathic pain rat model", "format": "in vivo", "procedure": "The chronic constriction nerve injury (CCI)-induced neuropathic pain rat model was built according to a published method (Bennett G J, et al. Pain, 1988). The experimental rats were anesthetized by intraperitoneal injection of 10 wt % chloral hydrate (300 mg/kg), and then placed on a super-clean bench, and the operation area was disinfected with iodophor.\nThe ligation tightness should be adjusted to cause slight twitching of a leg on an operated side of the rat without affecting the blood circulation of the epineurium. The wound was sutured layeredly and wiped with iodophor according to the postoperative situation. The rats were transferred back into a cage for rest upon fully recovering. The PWT was measured 5 days after modeling, where those with a significant lower PWT were considered as successful neuropathic pain rat models, and the undesirable rats were excluded.\n(S1) A total of 15 healthy adult SD rats, weighing 180-220 g, were selected, numbered on tails and placed in the same cage.\n(S2) The rats were raised in a measuring room for 2 h for adaptation.\nThe measurement was repeated 3-5 times for each rat at an interval of 5-10 min, and the results were averaged. Then the rats were allowed to rest for several hours and then adopted to build a CCI-induced neuropathic pain model.\n(S4) The PWT was measured on the morning of the 3rd day and the 6th day after the modeling, and those unsuccessful models were removed. And on the 6th after the modeling, the successful rat models were randomly divided into 3 groups, where the group A was injected with normal saline; the group B was injected with 5 mg/kg of morphine; and the group C was intradermally injected with 8 μg/kg of the short peptide P10581 into the left hind paw. 1 h later, the PWT of each group was recorded when the left hind paw generated mechanical withdrawal. Each of the rats was measured 3-5 times at an interval of 5-10 min, and the PWTs were averaged as the actual PWT (unit: g). The drug injection was fixedly performed at 9:00 a.m. and 5:30 p.m. from the 6th day to the 14th day after modeling, and the PWT of each group was measured before and after administration every other day. On the 15th day after modeling, the group B was injected with 8 μg/kg of the short peptide P10581 and the group C was injected with 5 mg/kg of the morphine, and the PWT of the group B and group C was recorded when the mechanical withdrawal occurred to the left hind paw.\n(1) 30 healthy adult SD rats, weighing 180-220 g, were selected to build a CCI-induced neuropathic pain model. On the 8th day after the modeling, successfully-established models were randomly divided into 6 groups, where the group A was injected with 0.45 μg/kg of the short peptide P10581; the group B was injected with 0.9 μg/kg of the short peptide P10581; the group C was injected with 1.8 μg/kg of the short peptide P10581; the group D was injected with 3.6 μg/kg of the short peptide P10581; the group E was injected with 7.2 μg/kg of the short peptide P10581; and the group F was injected with 8.5 μg/kg of the short peptide P10581. The PWT of each group was measured 1.5 h later.\n(2) Each group was injected with 7.2 μg/kg of the short peptide P10581 at 5:30 p.m. on the 8th day after modeling, and then continuously injected from the 9th day to the 16th day 16 (injected with 7.2 μg/kg of the short peptide P10581 at 9:00 a.m. and 5:30 p.m. a day). The PWT of rats before and after administration in the morning was measured every other day.\n(3) On the 17th day after modeling, the six groups were injected with different doses of the short peptide P10581, respectively, according to step (1). 1.5 h later, the PWT of each group was measured to evaluate the effect of dose.\n(1) 15 healthy adult SD rats, weighing 180-220 g, were selected to build a CCI-induced neuropathic pain model."}, "[2]": {"system": "morphine analgesic tolerance, neuropathic pain rat model", "format": "in vivo", "procedure": "(1) 18 healthy adult SD rats, weighing 180-220 g, were selected to build a CCI-induced neuropathic pain model. On the 7th day after modeling, those successfully-established models were randomly divided into 3 groups, where the group A was injected with normal saline; the group B was injected with morphine (15 μg, 10 μL); and the group C was injected with 0.2 μg/kg of the short peptide P10581, and then injected with morphine (15 μg, 10 μL) 30 min later. 1 h later, the PWT of each group was recorded.\n(2) Each group was injected with the drug respectively at 9:00 a.m. and 5:30 p.m. from 7th day to 11th day after modeling, and the PWT of each group was measured before and after the administration in the morning every day."}, "[3]": {"settings": "8 μg/kg i.d., twice a day, repeated"}}}
{"molecule": "CN1CC[C@]23c4c5ccc(O)c4O[C@H]2[C@@H](O)C=C[C@H]3[C@H]1C5", "note": "[morphine, reference compound]", "values": [{"measurement": "analgesic effect / tolerance after repeated injection", "setting": "[1]; rat, in vivo", "result": "eventually lost the analgesic effect"}, {"measurement": "analgesic effect of morphine after repeated P10581", "setting": "[1]; rat, in vivo", "result": "the same analgesic effect was still kept"}, {"measurement": "analgesic effect of morphine on neuropathic pain", "setting": "[2]; rat, in vivo", "result": "completely disappeared"}]}
{"molecule": "WKCNPNDDKCCRPKLKC [P10581]", "values": [{"measurement": "analgesic effect on neuropathic pain threshold, low dose", "setting": "[1]; 0.1 μg/kg i.d., twice a day", "result": "no effect on the threshold of neuropathic pain in rats"}, {"measurement": "IC50 before vs after repeated administration", "setting": "[1]; 7.2 μg/kg i.d. repeated (FIG. 8D)", "result": "did not bring significant difference to the IC50"}, {"measurement": "change of PWT after repeated high-dose administration", "setting": "[1]; 7.2 μg/kg i.d., twice a day, 9 days, test doses 0.45-8.5 μg/kg", "result": "no obvious change occurred to the PWT"}, {"measurement": "analgesic effect in morphine-tolerant rats", "setting": "[1]; 8 μg/kg i.d. on day 10 after repeated morphine 5 mg/kg", "result": "neuropathic pain threshold of rats can be reversed"}, {"measurement": "analgesic effect on neuropathic pain", "setting": "[1]; [3]", "result": "neuropathic pain was alleviated"}, {"measurement": "analgesic tolerance after repeated injection", "setting": "[1]; [3]", "result": "no analgesic tolerance occurred"}, {"measurement": "administration dose at which analgesic effect reached the peak", "setting": "[1]; neuropathic pain, i.d.", "result": 7.2, "unit": "µg/kg"}, {"measurement": "effect on morphine analgesic tolerance", "setting": "[2]; 0.2 μg/kg peptide intrathecal 30 min before morphine 15 μg", "result": "completely eliminated"}]}
